Test results published in patent US10865191B2, “Heterocyclic compounds useful as modulators of TNF alpha” (BRISTOL-MYERS SQUIBB COMPANY, priority 2015, dated 2020).

These molecules were tested against TNFα (Homo sapiens, UniProt P01375) (assay: TNF induced HEK-Blue assay (NF-kB-driven secreted alkaline phosphatase reporter)). Settings: TNF induced HEK-Blue assay IC50 value, TNFα 0.5 ng/mL, HEK-Blue-CD40L cells, 18 h.
Assay type: cell-based
Summary of the method: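 HEK-Blue-CD40L cells (NF-kB-driven SEAP reporter), 20,000/well, added after 30 min pre-incubation of compound (0.004–25 μM final) with TNFα 0.5 ng/mL final at 37 °C; 18 h incubation. SEAP read with QUANTI-Blue at 620 nm; IC50 from 4-parameter logistic fit, normalized to unstimulated and stimulated DMSO controls.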

Sequence of TNFα (P01375 77-233 limits assumed): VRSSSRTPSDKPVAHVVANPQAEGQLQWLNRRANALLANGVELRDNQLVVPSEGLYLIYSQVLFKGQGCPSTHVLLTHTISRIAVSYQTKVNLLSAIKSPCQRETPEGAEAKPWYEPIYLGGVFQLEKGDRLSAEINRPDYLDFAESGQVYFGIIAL

Row | IC50 [nM] | SMILES
1 | < 1000 | C[C@@H](Nc1c(Cl)cnc2ccc(-c3cnc(C(C)(C)O)nc3)cc12)c1ccccc1 [Example 154, (R)-2-(5-(3-chloro-4-((1-phenylethyl)amino)quinolin-6-yl)pyrimidin-2-yl)propan-2-ol]
2 | < 1000 | CC(C)C(Nc1c(Cl)cnc2ccc(-c3cnc(C(C)(C)O)nc3)cc12)c1ccccc1F (stereo not shown) [Example 189, 2-(5-(3-chloro-4-((1-(2-fluorophenyl)-2-methylpropyl)amino)quinolin-6-yl)pyrimidin-2-yl)propan-2-ol]

Further lines, the molecule ahead of its results:

Row | SMILES | IC50 [nM]
3 | CC(Nc1c(Cl)cnc2ccc(-c3cnc(C(C)(C)O)nc3)c(Cl)c12)c1ccccc1F (racemic) [Example 296, 2-(5-(3,5-dichloro-4-((1-(2-fluorophenyl)ethyl)amino)quinolin-6-yl)pyrimidin-2-yl)propan-2-ol] | < 1000
4 | CC(=O)N1CCC[C@@H](C(C)Nc2c(Cl)cnc3ccc(-c4cnc(C(C)(C)O)nc4)cc23)C1 (single isomer, unassigned) [Example 108] | 1000 to 10000

Same assay, conditions: TNFα 0.5 ng/mL, HEK-Blue-CD40L cells, 18 h; read-out: TNF induced HEK-Blue assay IC50 value

Row | IC50 [nM] | SMILES
5 | < 1000 | CC(Nc1c(Cl)cnc2ccc(-c3ccc(C(C)(C)O)cc3)cc12)c1nc(C(N)=O)ccc1F (racemic) [Example 27, 6-(1-((3-chloro-6-(4-(2-hydroxypropan-2-yl)phenyl)quinolin-4-yl)amino)ethyl)-5-fluoropicolinamide]
6 | < 1000 | C[C@@H](Nc1c(Cl)cnc2ccccc12)c1cc(-c2cncnc2)ccc1F [Example 479, (R)-3-chloro-N-(1-(2-fluoro-5-(pyrimidin-5-yl)phenyl)ethyl)quinolin-4-amine]
7 | < 1000 | Cc1nc2ccccc2c(N[C@H](C)c2cc(-c3cncnc3)ccc2F)c1Cl [Example 530, (R)-3-chloro-N-(1-(2-fluoro-5-(pyrimidin-5-yl)phenyl)ethyl)-2-methylquinolin-4-amine]
8 | < 1000 | C[C@@H](Nc1c(Cl)cnc2ccc(-c3ccc(C(C)(C)O)cc3)cc12)c1cnccn1 [Example 490, (R)-2-(4-(3-chloro-4-((1-(pyrazin-2-yl)ethyl)amino)quinolin-6-yl)phenyl)propan-2-ol]
9 | 1000 to 10000 | Cc1nc2ccc(-c3ccc(C(C)(C)O)cc3)cc2c(NC(C)c2cccs2)c1Cl (stereo not shown) [Example 502, 2-(4-(3-chloro-2-methyl-4-((1-(thiophen-2-yl)ethyl)amino)quinolin-6-yl)phenyl)propan-2-ol]
10 | < 1000 | Cc1nc2cc(F)c(-c3cnc(C(C)(C)O)nc3)cc2c(N[C@H](C)c2cc(CCC(N)=O)ccc2F)c1Cl [Example 445, (R)-3-(3-(1-((3-chloro-7-fluoro-6-(2-(2-hydroxypropan-2-yl)pyrimidin-5-yl)-2-methylquinolin-4-yl)amino)ethyl)-4-fluorophenyl)propanamide]
11 | 1000 to 10000 | CC(Nc1c(Cl)cnc2ccc(-c3cnc(C(C)(C)O)nc3)cc12)c1cccc(C(F)(F)F)c1 (racemic) [Example 147, 2-(5-(3-chloro-4-((1-(3-(trifluoromethyl)phenyl)ethyl)amino)quinolin-6-yl)pyrimidin-2-yl)propan-2-ol]
12 | < 1000 | Cc1nc2cc(F)c(-c3cnc(C(C)(C)O)nc3)nc2c(N[C@@H](c2cc(C(N)=O)ccc2F)C(F)F)c1Cl [Example 497, (S)-3-(1-((3-chloro-7-fluoro-6-(2-(2-hydroxypropan-2-yl)pyrimidin-5-yl)-2-methyl-1,5-naphthyridin-4-yl)amino)-2,2-difluoroethyl)-4-fluorobenzamide]
13 | 10000 to 25000 | Cc1ccc(C)c(Nc2c(Cl)c(C(=O)Nc3cccnc3)nc3ccc(-c4ccc(C(N)=O)nc4)cc23)c1 [Example 37, 6-(6-carbamoylpyridin-3-yl)-3-chloro-4-((2,5-dimethylphenyl)amino)-N-(pyridin-3-yl) quinoline-2-carboxamide]
14 | < 1000 | Cc1nc2cc(F)c(-c3ccc(=O)[nH]c3)cc2c(N[C@H](C)c2cc(Br)ccc2F)c1Cl [Example 449, (R)-5-(4-((1-(5-bromo-2-fluorophenyl)ethyl)amino)-3-chloro-7-fluoro-2-methylquinolin-6-yl)pyridin-2(1H)-one]

Further lines, the molecule ahead of its results:

Row | SMILES | IC50 [nM]
15 | C[C@@H](Nc1c(Cl)cnc2ccc(-c3ccc(C4(NS(C)(=O)=O)CCC4)cc3)cc12)c1ccccc1F [Example 111, (R)—N-(1-(4-(3-chloro-4-((1-(2-fluorophenyl)ethyl)amino)quinolin-6-yl)phenyl)cyclobutyl)methanesulfonamide] | 10000 to 25000
16 | CCN1CCC[C@H]([C@H](C)Nc2c(Cl)cnc3ccc(-c4cnc(C(C)(C)O)nc4)cc23)C1 [Example 105, 2-(5-(3-chloro-4-(((S)-1-((S)-1-ethylpiperidin-3-yl)ethyl)amino)quinolin-6-yl)pyrimidin-2-yl)propan-2-ol] | < 1000
17 | Cc1ccc(C)c(Nc2c(Cl)c(C)nc3ccc(-c4ccc(C(=O)O)nc4)cc23)c1 [Example 9, 5-(3-chloro-4-((2,5-dimethylphenyl)amino)-2-methylquinolin-6-yl)picolinic acid] | 10000 to 25000
18 | CC(Nc1c(Cl)cnc2ccc(-c3ccc(C(C)(C)O)cc3)cc12)c1cnco1 (racemic) [Example 203, 2-(4-(3-chloro-4-((1-(oxazol-5-yl)ethyl)amino)quinolin-6-yl)phenyl)propan-2-ol] | < 1000
19 | CC(Nc1c(Cl)cnc2c(F)cc(-c3cnc(C(C)(C)O)nc3)cc12)c1cc(Br)ccc1F (single isomer, unassigned) [Example 612, 2-(5-(4-((1-(5-bromo-2-fluorophenyl)ethyl)amino)-3-chloro-8-fluoroquinolin-6-yl)pyrimidin-2-yl)propan-2-ol] | < 1000
20 | CNC(=O)c1ccc(-c2ccc3nc(C)c(F)c(Nc4cc(C)ccc4C)c3c2)cn1 [Example 186, 5-(4-((2,5-dimethylphenyl)amino)-3-fluoro-2-methylquinolin-6-yl)-N-methylpicolinamide] | 10000 to 25000
21 | COC(=O)CN1CCN(c2ncc(-c3ccc4ncc(Cl)c(N[C@H](C)c5ccccc5F)c4c3)cn2)CC1 [Example 224] | < 1000
22 | Cc1nc2cc(F)c(-c3cnc(C(C)(C)O)nc3)nc2c(NC(c2ccccc2)C(F)F)c1Cl (racemic) [Example 214, 2-(5-(7-chloro-8-((2,2-difluoro-1-phenylethyl)amino)-3-fluoro-6-methyl-1,5-naphthyridin-2-yl)pyrimidin-2-yl)propan-2-ol] | < 1000
23 | C=Cc1ccc(F)c(C(CC)Nc2c(Cl)cnc3ccc(-c4cnc(C(C)(C)O)nc4)cc23)n1 (racemic) [Example 126, 2-(5-(3-chloro-4-((1-(3-fluoro-6-vinylpyridin-2-yl)propyl)amino)quinolin-6-yl)pyrimidin-2-yl)propan-2-ol] | < 1000
24 | C[C@@H](Nc1c(Cl)cnc2ccccc12)c1cc(-c2cccc(N)c2)ccc1F [Example 526, (R)—N-(1-(3′-amino-4-fluoro-[1,1′-biphenyl]-3-yl)ethyl)-3-chloroquinolin-4-amine] | 1000 to 10000
25 | CC(Nc1c(Cl)cnc2cc(F)c(-c3ccc(C(O)CO)cc3)cc12)c1ccccc1F (stereo not shown) [Example 291, 1-(4-(3-chloro-7-fluoro-4-((1-(2-fluorophenyl)ethyl)amino)quinolin-6-yl)phenyl)ethane-1,2-diol] | < 1000
26 | C[C@@H](Nc1ccnc2ccc(Br)cc12)c1cc(-c2cncnc2)ccc1F [Example 546, (R)-6-bromo-N-(1-(2-fluoro-5-(pyrimidin-5-yl)phenyl)ethyl)quinolin-4-amine] | 10000 to 25000
27 | C[C@@H](Nc1c(Cl)cnc2cccnc12)c1cc(-c2cncnc2)ccc1F [Example 555, (R)-3-chloro-N-(1-(2-fluoro-5-(pyrimidin-5-yl)phenyl)ethyl)-1,5-naphthyridin-4-amine] | < 1000
28 | CC(Nc1c(Cl)cnc2cc(F)c(-c3cnc(N4CCN(C(=O)[C@@H](N)CC(=O)O)CC4)nc3)cc12)c1ccccc1F (single isomer, unassigned) [Example 605, (3 S)-3-amino-4-(4-(5-(3-chloro-7-fluoro-4-((1-(2-fluorophenyl)ethyl)amino)quinolin-6-yl)pyrimidin-2-yl)piperazin-1-yl)-4-oxobutanoic acid] | < 1000
29 | CC(Nc1c(Cl)cnc2ccc(-c3ccc(C(C)(C)O)cc3)cc12)c1cn(C)cn1 (racemic) [Example 205, 2-(4-(3-chloro-4-((1-(1-methyl-1H-imidazol-4-yl)ethyl)amino)quinolin-6-yl)phenyl)propan-2-ol] | < 1000
30 | C[C@@H](Nc1c(Cl)cnc2ccc(F)cc12)c1cc(-c2cncnc2)ccc1F [Example 544, (R)-3-chloro-6-fluoro-N-(1-(2-fluoro-5-(pyrimidin-5-yl)phenyl)ethyl)quinolin-4-amine] | < 1000
31 | CC(Cc1cccc2[nH]ccc12)Nc1c(Cl)cnc2ccc(-c3cnc(C(C)(C)O)nc3)cc12 (racemic) [Example 144, 2-(5-(4-((1-(1H-indol-4-yl)propan-2-yl)amino)-3-chloroquinolin-6-yl)pyrimidin-2-yl)propan-2-ol] | 1000 to 10000
32 | CC(Nc1c(Cl)cnc2cc(F)c(-c3cnc(C#N)nc3)cc12)c1ccccc1F (stereo not shown) [Example 255, 5-(3-chloro-7-fluoro-4-((1-(2-fluorophenyl)ethyl)amino)quinolin-6-yl)pyrimidine-2-carbonitrile] | 1000 to 10000
33 | CC(Nc1c(Cl)cnc2cc(F)c(-c3cnc(C(O)CO)nc3)cc12)c1ccccc1F (single isomer, unassigned) [Example 597, 1-(5-(3-chloro-7-fluoro-4-((1-(2-fluorophenyl)ethyl)amino)quinolin-6-yl)pyrimidin-2-yl)ethane-1,2-diol] | 1000 to 10000
34 | CC(Nc1c(Cl)cnc2ccc(-c3ccc(C(C)(C)O)cc3)cc12)c1cccnc1 (racemic) [Example 166, 2-(4-(3-chloro-4-((1-(pyridin-3-yl)ethyl)amino)quinolin-6-yl)phenyl)propan-2-ol] | 10000 to 25000
